Read-outs that look alike come from different tables or passages of the source.
Assays:
[1] = Dicarboxylic acid remaining in solution while the HCl-acidified magnesium dicarboxylate solution is cooled (precipitation); format: physicochemical
Description: Magnesium hydroxide was added to a solution of dicarboxylic acid in water and heated up to complete dissolution. Four different carboxylic acids were used: adipic acid, fumaric acid, itaconic acid and 2,5-furandicarboxylic acid. The resulting dicarboxylate solution was meant to resemble a magnesium dicarboxylate solution obtained in a fermentation process. Although a magnesium dicarboxylate solution obtained in a fermentation process generally comprises compounds other than magnesium dicarbooxylate, such as a relatively large amount of impurities, the magnesium dicarboxylate solution prepared for this example was considered to sufficiently resemble a magnesium dicarboxylate solution obtained in a fermentation process to show the proof of principle that the invention works.
A certain amount of an aqueous solution of HCl was added to the magnesium dicarboxylate solution from Example 1, as indicated in Table 2. […] During cooling, samples were taken of the solution for each 10±1 centigrade.
The amount of crystal produced was calculated as difference between the initial dicarboxylic mass and the remaining dicarboxylic mass in solution.

[2] = water at 20° C.; cited from earlier work
[3] = Description: An amount of 333 g aqueous solution of HCl (37 wt. % wt %) was added to the thus prepared magnesium succinate solution. […] During cooling, samples were taken of the solution and the precipitate of the mixture at 62, 52, 40, 31 and 20° C. The composition of the samples and the total amount of precipitate formed were determined.
The samples were taken only from the solution (for sampling, stirrer was stopped some few seconds, and after crystal settling, a sample was taken from the supernatant).

[4] = remark: listed apart in the source
Description: The solution was then cooled from 115° C. to 20° C. […] The precipitate was separated from the solution by filtration using a standard gravity filter.

[5] = 20 ° C., MgCl2 solution, over precipitate
[6] = 30 ° C., MgCl2 solution, over precipitate
[7] = 50 ° C., MgCl2 solution, over precipitate
[8] = 60 ° C., MgCl2 solution after HCl acidulation, no precipitate yet
[9] = 40 ° C., MgCl2 solution, over precipitate

For O=C(O)c1ccc(C(=O)O)o1 [2,5-Furandicarboxylic Acid, 2,5-furandicarboxylic acid], the “2,5-Furandicarboxylic Acid concentration in the solution” value ([1]; 22 ° C., MgCl2 solution, over precipitate) was 0.06%, the “2,5-Furandicarboxylic Acid concentration in the solution” value ([1]; 32 ° C., MgCl2 solution, over precipitate) was 0.14% and the “2,5-Furandicarboxylic Acid concentration in the solution” value ([1]; 42 ° C., MgCl2 solution, over precipitate) was 0.33%. For the same compound, the “2,5-Furandicarboxylic Acid concentration in the solution” value ([1]; 53 ° C., MgCl2 solution, over precipitate) was 0.25%, the “2,5-Furandicarboxylic Acid concentration in the solution” value ([1]; 62 ° C., MgCl2 solution, over precipitate) was 0.38% and the “2,5-Furandicarboxylic Acid concentration in the solution” value ([1]; 72 ° C., MgCl2 solution, over precipitate) was 0.19%. The “2,5-Furandicarboxylic Acid concentration in the solution” value ([1]; 84 ° C., MgCl2 solution, over precipitate) was 0.52%.

For O=C(O)/C=C/C(=O)O [Fumaric Acid, fumaric acid], the “Fumaric Acid concentration in the solution” value (shortened to “Fumaric Acid concentration”) [1, 5] was 0.5 wt %, the “Fumaric Acid concentration” value [1, 6] was 0.5 wt % and the “Fumaric Acid concentration” value ([1]; 39 ° C., MgCl2 solution, over precipitate) was 0.7 wt %. For the same compound, the “Fumaric Acid concentration” value [1, 7] was 1.1 wt % and the “Fumaric Acid concentration” value [1, 8] was 1.6 wt %.

In the case of O=C(O)CCCCC(=O)O [Adipic Acid, adipic acid], the “Adipic Acid concentration in the solution” value (from here on “Adipic Acid concentration”) [1, 5] is reported as 0.7 wt %, the “Adipic Acid concentration” value [1, 6] is reported as 1.2 wt % and the “Adipic Acid concentration” value [1, 9] is reported as 2 wt %. The “Adipic Acid concentration” value ([1]; 51 ° C., MgCl2 solution, over precipitate) was 3.5 wt %, the “Adipic Acid concentration” value ([1]; 60 ° C., MgCl2 solution, over precipitate) was 6.1 wt % and the “Adipic Acid concentration” value ([1]; 70 ° C., MgCl2 solution, over precipitate) was 11.5 wt %. The “Adipic Acid concentration” value ([1]; 81 ° C., MgCl2 solution after HCl acidulation, no precipitate yet) was 14.2 wt %.

In the case of [Cl-].[Cl-].[Mg+2] [MgCl2, magnesium chloride], the “saturation point in water” value [2] is given as 55 g/100 g water.

For O=C(O)CCC(=O)O [Succinic Acid, succinic acid], the “Succinic Acid concentration in the solution” value (from here on “Succinic Acid concentration”) [3, 5] was 2.10 wt. %, the “Succinic Acid concentration” value ([3]; 31 ° C., MgCl2 solution, over precipitate) was 3.40 wt. % and the “Succinic Acid concentration” value [3, 9] was 5.00 wt. %. For the same compound, the “Succinic Acid concentration” value ([3]; 52 ° C., MgCl2 solution, over precipitate) was 8.20 wt. %, the “Succinic Acid concentration” value ([3]; 62 ° C., MgCl2 solution after HCl acidulation, no precipitate yet) was 13.13 wt. % and the “succinic acid present in the filtrate” value ([4]; HPLC, filtrate after cooling from 115° C. to 20° C., 31.7 wt. % magnesium chloride) was 0.22 wt. %. The “Content succínic, Solution” value ([4]; solution after cooling to 20° C. and filtration, concentrated to 31.7 wt. % magnesium chloride) was 0.22%.

For C=C(CC(=O)O)C(=O)O [Itaconic Acid, itaconic acid], the “Itaconic Acid concentration in the solution” value (from here on “Itaconic Acid concentration”) [1, 5] was 2.6 wt %, the “Itaconic Acid concentration” value [1, 6] was 4.1 wt % and the “Itaconic Acid concentration” value ([1]; 41 ° C., MgCl2 solution, over precipitate) was 6.0 wt %. For the same compound, the “Itaconic Acid concentration” value [1, 7] was 9.4 wt % and the “Itaconic Acid concentration” value [1, 8] was 13.2 wt %.
